From patent US9951052B2, “Inhibitors of the renal outer medullary potassium channel” (Merck Sharp & Dohme Corp., priority 2013, dated 2018)

Target: T1, hROMK (hKir1.1) (Homo sapiens, UniProt P48048)
T1 construct: expressed in transfected cells
T1 sequence (P48048 1-391): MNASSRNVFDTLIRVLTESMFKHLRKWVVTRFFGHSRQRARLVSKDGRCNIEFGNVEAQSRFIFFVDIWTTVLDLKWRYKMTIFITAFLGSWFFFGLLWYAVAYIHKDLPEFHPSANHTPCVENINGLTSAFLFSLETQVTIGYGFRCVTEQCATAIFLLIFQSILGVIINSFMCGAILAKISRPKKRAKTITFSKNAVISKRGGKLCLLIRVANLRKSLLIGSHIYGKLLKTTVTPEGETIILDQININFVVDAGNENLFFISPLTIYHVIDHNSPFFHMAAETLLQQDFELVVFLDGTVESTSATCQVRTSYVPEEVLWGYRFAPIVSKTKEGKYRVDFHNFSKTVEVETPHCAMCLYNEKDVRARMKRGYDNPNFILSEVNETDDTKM
Assay: Thallium Flux Assay (ROMK channel functional thallium flux, FLIPR-Tetra)
Assay type: cell-based
Details: HEK293 cells stably expressing hROMK (hKir1.1); 30 min incubation with compound; HCl salt run where final product was an HCl salt
Protocol: The following Thallium Flux Assay was performed on each of the final product compounds in the Examples. When the final product of an Example was an HCl salt, the salt was run in the Assay.
Cell Culture Conditions—HEK293 cells stably expressing hROMK (hKir1.1) were grown at 37° C. in a 10% CO2 humidified incubator in complete growth media: Dulbecco's Modified Eagle Medium supplemented with non-essential amino acids, Penicillin/Streptomycin/Glutamine, G418 and FBS. At >80% confluency, aspirate the media from the flask and rinse with 10 mL Calcium/Magnesium-free PBS. Add 5 mL of 1× trypsin (prepared in Ca/Mg Free PBS) to T-225 flask and return flask to 37° C./CO2 incubator for 2-3 minutes. To dislodge the cell, gently bang the side of the flask with your hand. Triturate the cells completely and then transfer the cells to 25 mL complete media. Centrifuge at 1,500 rpm for 6 min followed by resuspension in complete growth media and determine cell concentration. For typical re-seeding, 4E6 cells/T-225 flask will attain >80% confluency in 4 days. Under ideal growth conditions and appropriate tissue culture practices, this cell line is stable for 40-45 passages.
FluxOR Kit Components (Invitrogen F10017)
• FluxOR™ Reagent (Component A) • FluxOR™ Assay Buffer (Component B)—10× Concentrate • PowerLoad™ Concentrate (Component C)—100× Concentrate • Probenecid (Component D)—Lyophilized sample is kept at −20° C. Water soluble, 100× after solubilization in 1 mL water. Store at 4° C. • FluxOR™ Chloride-free Buffer (Component E)—5× Concentrate • Potassium sulfate (K2SO4) Concentrate (Component F)—125 mM in water. Store at 4° C. • Thallium sulfate (T12SO4) Concentrate (Component G)—50 mM in water. Store at 4° C. • DMSO (dimethyl sulfoxide, Component H)—1 mL (100%) Reagent Preparation: FluxOR Working Solutions • 1000× FluxOR™ Reagent: Reconstitute a vial of component A in 100 μl DMSO; Mix well; Store 10 μl aliquots at −20° C. • 1× FluxOR™ Assay Buffer: Dilute Component B 10-fold with water; Adjust pH to 7.4 with Hepes/NaOH; Filter and store at 4° C. • Probenecid/Assay Buffer: 100 mL of 1× FluxOR™ Assay Buffer; 1 mL of reconstituted component D; Store at 4° C. • Loading Buffer (per microplate): 10 μl 1000× FluxOR™ Reagent; 100 μl component C; 10 mL Probenecid/Assay Buffer • Compound Buffer (per microplate): 20 mL Probenecid/Assay Buffer; 0.3 mM ouabain (10 mM ouabain in water can be stored in amber bottle/aluminum foil at room temperature); Test compound • 1× FluxOR™ Chloride-Free Buffer: Prepare 1× working solution in water. Can be stored at room temperature • Stimulant Buffer (prepared at 5× final concentration in 1× FluxOR™ Chloride-Free Buffer): 7.5 mM Thallium sulfate and 0.75 mM Potassium sulfate (to give a final assay concentration of 3 mM Thallium/0.3 mM Potassium). Store at 4° C. when not in use.
Assay protocol—The ROMK channel functional thallium flux assay is performed in 384 wells, using the FLIPR-Tetra instrument. HEK-hKir1.1 cells are seeded in Poly-D-Lysine microplates and kept in a 37° C.-10% CO2 incubator overnight. On the day of the experiment, the growth media is replaced with the FluxOR™ reagent loading buffer and incubated, protected from light, at ambient temperature (23-25° C.) for 90 min. The loading buffer is replaced with assay buffer±test compound followed by 30 min incubation at ambient temperature, where the Thallium/Potassium stimulant is added to the microplate.
• 1. Seed HEK-hKir1.1 cells (50 μl at 20,000 cells/well) in 384-well PDL coated Microplates • 2. Allow cells to adhere overnight in humidified 37° C./10% CO2 incubator • 3. Completely remove cell growth media from microplate and replace with 25 μl loading buffer • 4. Incubate Microplate at room temperature, protected from light, for 90 min • 5. Remove loading buffer and replace with 25 μl 1× Assay Buffer±test compound. • 6. Incubate microplate at room temperature, protected from light, for 30 min • 7. […]

| Compound | IC50 [nM] |
| --- | --- |
| Cc1c([C@@H](O)CN2CCC(C(=O)Nc3ccc(-n4cccn4)cc3)CC2)ccc2c1COC2=O [Example 23, (R)-N-(4-(1H-pyrazol-1-yl)phenyl)-1-(2-hydroxy-2-(4-methyl-1-oxo-1,3-dihydroisobenzofuran-5-yl)ethyl)piperidine-4-carboxamide] | 80 |
| Cc1c([C@@H](O)CN2CCC(C(=O)Nc3cccc(-n4cnnn4)c3)CC2)ccc2c1COC2=O [Example 24, (R)-N-(3-(1H-tetrazol-1-yl)phenyl)-1-(2-hydroxy-2-(4-methyl-1-oxo-1,3-dihydroisobenzofuran-5-yl)ethyl)piperidine-4-carboxamide] | 90 |
| CCOc1cc(NC(=O)C2CCN(C[C@H](O)c3ccc4c(c3C)COC4=O)CC2)ccc1C#N [Example 25, (R)-N-(4-cyano-3-ethoxyphenyl)-1-(2-hydroxy-2-(4-methyl-1-oxo-1,3-dihydroisobenzofuran-5-yl)ethyl)piperidine-4-carboxamide] | 180 |
| Cc1c([C@@H](O)CN2CCC(C(=O)Nc3cnoc3)CC2)ccc2c1COC2=O [Example 27, (R)-1-(2-hydroxy-2-(4-methyl-1-oxo-1,3-dihydroisobenzofuran-5-yl)ethyl)-N-(isoxazol-4-yl)piperidine-4-carboxamide] | 140 |
| Cc1c([C@@H](O)CN2CCC(C(=O)Nc3cnsc3)CC2)ccc2c1COC2=O [Example 28, (R)-1-(2-hydroxy-2-(4-methyl-1-oxo-1,3-dihydroisobenzofuran-5-yl)ethyl)-N-(isothiazol-4-yl)piperidine-4-carboxamide] | 100 |
| Cc1c([C@@H](O)CN2CCC(C(=O)Nc3snc4ccncc34)CC2)ccc2c1COC2=O [Example 30, (R)-1-(2-hydroxy-2-(4-methyl-1-oxo-1,3-dihydroisobenzofuran-5-yl)ethyl)-N-(isothiazolo[4,3-c]pyridin-3-yl)piperidine-4-carboxamide] | 100 |
| Cc1nsc(NC(=O)C2CCN(C[C@H](O)c3ccc4c(c3C)COC4=O)CC2)n1 [Example 31, (R)-1-(2-hydroxy-2-(4-methyl-1-oxo-1,3-dihydroisobenzofuran-5-yl)ethyl)-N-(3-methyl-1,2,4-thiadiazol-5-yl)piperidine-4-carboxamide] | 160 |
| Cc1c([C@@H](O)CN2CCC(C(=O)Nc3cncc(F)c3)CC2)ccc2c1COC2=O [Example 34, (R)-N-(5-fluoropyridin-3-yl)-1-(2-hydroxy-2-(4-methyl-1-oxo-1,3-dihydroisobenzofuran-5-yl)ethyl)piperidine-4-carboxamide] | 340 |
| Cc1cc(NC(=O)C2CCN(C[C@H](O)c3ccc4c(c3C)COC4=O)CC2)sn1 [Example 36, (R)-1-(2-hydroxy-2-(4-methyl-1-oxo-1,3-dihydroisobenzofuran-5-yl)ethyl)-N-(3-methylisothiazol-5-yl)piperidine-4-carboxamide] | 120 |
| Cc1c([C@@H](O)CN2CCC(O)(C(=O)Nc3ccns3)CC2)ccc2c1COC2=O [Example 38, (R)-4-hydroxy-1-(2-hydroxy-2-(4-methyl-1-oxo-1,3-dihydroisobenzofuran-5-yl)ethyl)-N-(isothiazol-5-yl)piperidine-4-carboxamide] | 110 |
| Cc1cc(NC(=O)C2(O)CCN(C[C@H](O)c3ccc4c(c3C)COC4=O)CC2)sn1 [Example 39, (R)-4-hydroxy-1-(2-hydroxy-2-(4-methyl-1-oxo-1,3-dihydroisobenzofuran-5-yl)ethyl)-N-(3-methylisothiazol-5-yl)piperidine-4-carboxamide] | 220 |
| Cc1nsc(NC(=O)C2(O)CCN(C[C@H](O)c3ccc4c(c3C)COC4=O)CC2)n1 [Example 40, (R)-4-hydroxy-1-(2-hydroxy-2-(4-methyl-1-oxo-1,3-dihydroisobenzofuran-5-yl)ethyl)-N-(3-methyl-1,2,4-thiadiazol-5-yl)piperidine-4-carboxamide] | 420 |
| Cc1c([C@@H](O)CN2CCC(C(=O)N(C)c3ccns3)CC2)ccc2c1COC2=O [Example 41, 1-[(2R)-2-hydroxy-2-(4-methyl-1-oxo-1,3-dihydro-2-benzofuran-5-yl)ethyl]-N-(isothiazol-5-yl)-N-methylpiperidine-4-carboxamide] | 10 |
| Cl.[2H]C([2H])([2H])N(C(=O)C1CCN(C[C@H](O)c2ccc3c(c2C)COC3=O)CC1)c1ccns1 [Example 42, 1-[(2R)-2-hydroxy-2-(4-methyl-1-oxo-1,3-dihydro-2-benzofuran-5-yl)ethyl]-N-(isothiazol-5-yl)-N-trideuteromethylpiperidine-4-carboxamide] | 20 |
| Cc1cc(N(C)C(=O)C2CCN(C[C@H](O)c3ccc4c(c3C)COC4=O)CC2)sn1 [Example 44, (R)-1-(2-hydroxy-2-(4-methyl-1-oxo-1,3-dihydroisobenzofuran-5-yl)ethyl)-N-methyl-N-(3-methylisothiazol-5-yl)piperidine-4-carboxamide] | 20 |

Further compounds by falling IC50, results first:

| IC50 [nM] | Compound |
| --- | --- |
| 420 | Cc1c([C@@H](O)CN2CCC(C(=O)Nc3ccncc3)CC2)ccc2c1COC2=O [Example 35, (R)-1-(2-hydroxy-2-(4-methyl-1-oxo-1,3-dihydroisobenzofuran-5-yl)ethyl)-N-(pyridin-4-yl)piperidine-4-carboxamide] |
| 300 | Cc1c([C@@H](O)CN2CCC(C(=O)Nc3nc(C4CC4)ns3)CC2)ccc2c1COC2=O [Example 32, (R)-N-(3-cyclopropyl-1,2,4-thiadiazol-5-yl)-1-(2-hydroxy-2-(4-methyl-1-oxo-1,3-dihydroisobenzofuran-5-yl)ethyl)piperidine-4-carboxamide] |
| 240 | Cc1c([C@@H](O)CN2CCC(C(=O)Nc3nc(C#N)cs3)CC2)ccc2c1COC2=O [Example 29, (R)-N-(4-cyanothiazol-2-yl)-1-(2-hydroxy-2-(4-methyl-1-oxo-1,3-dihydroisobenzofuran-5-yl)ethyl)piperidine-4-carboxamide] |
| 170 | Cc1c([C@@H](O)CN2CCC(C(=O)Nc3ccc(-c4csnn4)cc3)CC2)ccc2c1COC2=O [Example 33, (R)-N-(4-(1,2,3-thiadiazol-4-yl)phenyl)-1-(2-hydroxy-2-(4-methyl-1-oxo-1,3-dihydroisobenzofuran-5-yl)ethyl)piperidine-4-carboxamide] |
| 150 | COc1cc(NC(=O)C2CCN(C[C@H](O)c3ccc4c(c3C)COC4=O)CC2)ccc1C#N [Example 26, (R)-N-(4-cyano-3-methoxyphenyl)-1-(2-hydroxy-2-(4-methyl-1-oxo-1,3-dihydroisobenzofuran-5-yl)ethyl)piperidine-4-carboxamide] |
| 50 | CCN(C(=O)C1CCN(C[C@H](O)c2ccc3c(c2C)COC3=O)CC1)c1ccns1 [Example 43, (R)-N-ethyl-1-(2-hydroxy-2-(4-methyl-1-oxo-1,3-dihydroisobenzofuran-5-yl)ethyl)-N-(isothiazol-5-yl)piperidine-4-carboxamide] |
